Assay results as given in patent US20260241012A1, “1,8-NAPHTHYRIDIN-2-ONE HETEROBIFUNCTIONAL BCL6 DEGRADERS” (Treeline Biosciences, Inc., priority 2022, published 2026).

Biological target: T1, N-terminal HiBiT tagged BCL6 (Homo sapiens, UniProt P41182)
T1 construct: expressed in transfected cells; host or cells: HT1080 (ATCC CCL-121), stably transduced with lentivirus pLV-UBC-N-HiBiT-BCL6-PGK-puro
Assay: HiBiT based degradation assay
Assay type: cell-based
Settings: HT1080 cells expressing N-terminal HiBiT tagged BCL6, 5 hours of incubation; for Ymin (5 hr): BCL6 degradation normalized with DMSO control; for DC50: four-parameter logistic model, read-out: EC50 (5 hr)
In short: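 Degradation measured by luminescence from the Nano-Glo HiBiT lytic reagent (15 min, room temperature), normalized to DMSO controls and fitted to a four-parameter curve.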

Structure (SMILES) | Ymin (5 hr) | DC50
CNC(=O)COc1cc2cc(Nc3nc(N4CCN(CC5CCN(c6cccc7c(N8CCC(=O)NC8=O)nn(C)c67)CC5)CC4)ncc3Cl)cnc2n(C(C)C)c1=O [Compound 109, 2-((6-((5-chloro-2-(4-((1-(3-(2,4-dioxotetrahydropyrimidin-1 (2H)-yl)-1-methyl-1H-indazol-7-yl)piperidin-4-yl)methyl)piperazin-1-yl)pyrimidin-4-yl)amino)-1-isopropyl-2-oxo-1,2-dihydro-1,8-naphthyridin-3-yl)oxy)-N-methylacetamide] | +++ (30% ≤ Ymin < 50%) | 10 to 100 nM
CNC(=O)COc1cc2cc(Nc3nc(N4CC5(CC(N(C)c6ccc7c(C8CCC(=O)NC8=O)nn(C)c7c6)C5)C4)ncc3Cl)cnc2n(C(C)C)c1=O (stereo not drawn) [Compound 207, 2-[[6-[[5-chloro-2-[6-[[3-(2,6-dioxo-3-piperidyl)-1-methyl-indazol-6-yl]-methyl-amino]-2-azaspiro[3.3]heptan-2-yl]pyrimidin-4-yl]amino]-1-isopropyl-2-oxo-1,8-naphthyridin-3-yl]oxy]-N-methyl-acetamide] | +++ (30% ≤ Ymin < 50%) | < 10 nM
CNC(=O)COc1cc2cc(Nc3nc(N4CCC(CN5CCN(c6ccc7c(C8CCC(=O)NC8=O)nn(C)c7c6)C[C@@H]5C)CC4)ncc3Cl)cnc2n(C(C)C)c1=O (stereo partly drawn) [Compound 215b, 2-((6-((5-chloro-2-(4-(((2S)-4-(3-(2,6-dioxopiperidin-3-yl)-1-methyl-1H-indazol-6-yl)-2-methylpiperazin-1-yl)methyl)piperidin-1-yl)pyrimidin-4-yl)amino)-1-isopropyl-2-oxo-1,2-dihydro-1,8-naphthyridin-3-yl)oxy)-N-methylacetamide] | +++ (30% ≤ Ymin < 50%) | 10 to 100 nM
CNC(=O)COc1cc2cc(Nc3nc(N4CC5(CCC(Nc6cc7c(cc6F)c(C6CCC(=O)NC6=O)nn7C)CC5)C4)ncc3Cl)cnc2n(C(C)C)c1=O (stereo not drawn) [Compound 184, 2-[[6-[[5-chloro-2-[7-[[3-(2,6-dioxo-3-piperidyl)-5-fluoro-1-methyl-indazol-6-yl]amino]-2-azaspiro[3.5]nonan-2-yl]pyrimidin-4-yl]amino]-1-isopropyl-2-oxo-1,8-naphthyridin-3-yl]oxy]-N-methyl-acetamide] | ++++ (Ymin < 30%) | < 10 nM
CNC(=O)COc1cc2cc(Nc3nc(N4CCN(C[C@H]5CCN(c6ccc7c(C8CCC(=O)NC8=O)nn(C)c7c6)C5)[C@H](C)C4)ncc3Cl)cnc2n(C(C)C)c1=O (stereo partly drawn) [Compound 216c, 2-[[6-[[5-chloro-2-[(3R)-4-[[(3R)-1-[3-(2,6-dioxo-3-piperidyl)-1-methyl-indazol-6-yl]pyrrolidin-3-yl]methyl]-3-methyl-piperazin-1-yl]pyrimidin-4-yl]amino]-1-isopropyl-2-oxo-1,8-naphthyridin-3-yl]oxy]-N-methyl-acetamide] | ++ (50% ≤ Ymin < 70%) | < 10 nM
CNC(=O)COc1cc2cc(Nc3nc(N4CC5(CC[C@@H](Nc6ccc7c(C8CCC(=O)NC8=O)nn(C)c7c6)[C@@H](C(F)(F)F)C5)C4)ncc3Cl)cnc2n(C(C)C)c1=O (relative stereo) [Compound 221a, 2-((6-((5-chloro-2-((6S,7R)-7-((3-(2,6-dioxopiperidin-3-yl)-1-methyl-1H-indazol-6-yl)amino)-6-(trifluoromethyl)-2-azaspiro[3.5]nonan-2-yl)pyrimidin-4-yl)amino)-1-isopropyl-2-oxo-1,2-dihydro-1,8-naphthyridin-3-yl)oxy)-N-methylacetamide] | ++++ (Ymin < 30%) | < 10 nM
CNC(=O)COc1cc2cc(Nc3nc(N4CCC(CN5CCN(c6cccc7c(C8CCC(=O)NC8=O)nn(C)c67)C[C@H]5C)CC4)ncc3Cl)cnc2n(C(C)C)c1=O (stereo partly drawn) [Compound 192b, 2-[[6-[[5-chloro-2-[4-[[(2R)-4-[3-(2,6-dioxo-3-piperidyl)-1-methyl-indazol-7-yl]-2-methyl-piperazin-1-yl]methyl]-1-piperidyl]pyrimidin-4-yl]amino]-1-isopropyl-2-oxo-1,8-naphthyridin-3-yl]oxy]-N-methyl-acetamide] | ++++ (Ymin < 30%) | 10 to 100 nM
CNC(=O)COc1cc2cc(Nc3nc(N4CC5(CC[C@@H](Oc6ccc7c(C8CCC(=O)NC8=O)nn(C)c7c6)[C@@H](C)C5)C4)ncc3Cl)cnc2n(C(C)C)c1=O (relative stereo) [Compound 185b, 2-[[6-[[5-chloro-2-[(6S,7R)-7-[3-(2,6-dioxo-3-piperidyl)-1-methyl-indazol-6-yl]oxy-6-methyl-2-azaspiro[3.5]nonan-2-yl]pyrimidin-4-yl]amino]-1-isopropyl-2-oxo-1,8-naphthyridin-3-yl]oxy]-N-methyl-acetamide] | ++++ (Ymin < 30%) | < 10 nM
CNC(=O)COc1cc2cc(Nc3nc(N4CCN(CC5CCN(c6cccc7c(C8CCC(=O)NC8=O)nn(C)c67)CC5)[C@@H](C(C)(C)O)C4)ncc3Cl)cnc2n(C(C)C)c1=O (stereo partly drawn) [Compound 208b] | ++++ (Ymin < 30%) | 10 to 100 nM
CNC(=O)COc1cc2cc(Nc3nc(N4CC5(CCC(Oc6cccc7c(C8CCC(=O)NC8=O)nn(C)c67)CC5)C4)ncc3Cl)cnc2n(C)c1=O (stereo not drawn) [Compound 142, 2-((6-((5-chloro-2-(7-((3-(2,6-dioxopiperidin-3-yl)-1-methyl-1H-indazol-7-yl)oxy)-2-azaspiro[3.5]nonan-2-yl)pyrimidin-4-yl)amino)-1-methyl-2-oxo-1,2-dihydro-1,8-naphthyridin-3-yl)oxy)-N-methylacetamide] | +++ (30% ≤ Ymin < 50%) | < 10 nM
CNC(=O)COc1cc2cc(Nc3nc(N4CC5(CC[C@H](Oc6ccc7c(C8CCC(=O)NC8=O)nn(C)c7c6)[C@H](C)C5)C4)ncc3Cl)cnc2n(C(C)C)c1=O (single isomer, unassigned) [Compound 185a] | ++++ (Ymin < 30%) | < 10 nM
CNC(=O)COc1cc2cc(Nc3nc(N4CC5(CC[C@H](Nc6cccc7c(C8CCC(=O)NC8=O)nn(C)c67)[C@H](C)C5)C4)ncc3Cl)cnc2n(C)c1=O (relative stereo) [Compound 159a, 2-((6-((5-chloro-2-((6R,7S)-7-((3-(2,6-dioxopiperidin-3-yl)-1-methyl-1H-indazol-7-yl)amino)-6-methyl-2-azaspiro[3.5]nonan-2-yl)pyrimidin-4-yl)amino)-1-methyl-2-oxo-1,2-dihydro-1,8-naphthyridin-3-yl)oxy)-N-methylacetamide] | +++ (30% ≤ Ymin < 50%) | < 10 nM
CNC(=O)COc1cc2cc(Nc3nc(N4CCN(CC5CCN(c6cccc7c(C8CCC(=O)NC8=O)nn(C)c67)CC5)[C@H](C(C)(C)O)C4)ncc3Cl)cnc2n(C(C)C)c1=O (stereo partly drawn) [Compound 208a, 2-[[6-[[5-chloro-2-[(3S)-4-[[1-[3-(2,6-dioxo-3-piperidyl)-1-methyl-indazol-7-yl]-4-piperidyl]methyl]-3-(1-hydroxy-1-methyl-ethyl)piperazin-1-yl]pyrimidin-4-yl]amino]-1-isopropyl-2-oxo-1,8-naphthyridin-3-yl]oxy]-N-methyl-acetamide] | +++ (30% ≤ Ymin < 50%) | 10 to 100 nM
CNC(=O)COc1cc2cc(Nc3nc(N4CCC(O[C@H]5C[C@H](N6CCN(c7ccc8c(C9CCC(=O)NC9=O)nn(C)c8c7)CC6)C5)CC4)ncc3Cl)cnc2n(C(C)C)c1=O (stereo partly drawn) [Compound 226a, 2-((6-((5-chloro-2-(4-((1r,3r)-3-(4-(3-(2,6-dioxopiperidin-3-yl)-1-methyl-1H-indazol-6-yl)piperazin-1-yl)cyclobutoxy)piperidin-1-yl)pyrimidin-4-yl)amino)-1-isopropyl-2-oxo-1,2-dihydro-1,8-naphthyridin-3-yl)oxy)-N-methylacetamide] | +++ (30% ≤ Ymin < 50%) | < 10 nM
CNC(=O)COc1cc2cc(Nc3nc(N4CCN(CC5CCC6(CC5)CN(c5cccc7c(C8CCC(=O)NC8=O)nn(C)c57)C6)CC4)ncc3Cl)cnc2n(C)c1=O (stereo not drawn) [Compound 149, 2-((6-((5-chloro-2-(4-((2-(3-(2,6-dioxopiperidin-3-yl)-1-methyl-1H-indazol-7-yl)-2-azaspiro[3.5]nonan-7-yl)methyl)piperazin-1-yl)pyrimidin-4-yl)amino)-1-methyl-2-oxo-1,2-dihydro-1,8-naphthyridin-3-yl)oxy)-N-methylacetamide] | +++ (30% ≤ Ymin < 50%) | 10 to 100 nM
CNC(=O)COc1cc2cc(Nc3nc(N4CCN(CC5CCN(c6ccc7c(C8CCC(=O)NC8=O)nn(C)c7c6)CC5)CC4)ncc3Cl)cnc2n(C(C)C)c1=O (stereo not drawn) [Compound 104, 2-((6-((5-chloro-2-(4-((1-(3-(2,6-dioxopiperidin-3-yl)-1-methyl-1H-indazol-6-yl)piperidin-4-yl)methyl)piperazin-1-yl)pyrimidin-4-yl)amino)-1-isopropyl-2-oxo-1,2-dihydro-1,8-naphthyridin-3-yl)oxy)-N-methylacetamide] | +++ (30% ≤ Ymin < 50%) | < 10 nM
CNC(=O)COc1cc2cc(Nc3cc(N4CCC(CN5CCN(c6cccc7c(C8CCC(=O)NC8=O)nn(C)c67)[C@@H](C)C5)CC4)ncc3Cl)cnc2n(C(C)C)c1=O (stereo partly drawn) [Compound 217b, 2-[[6-[[5-chloro-2-[4-[[(3S)-4-[3-(2,6-dioxo-3-piperidyl)-1-methyl-indazol-7-yl]-3-methyl-piperazin-1-yl]methyl]-1-piperidyl]-4-pyridyl]amino]-1-isopropyl-2-oxo-1,8-naphthyridin-3-yl]oxy]-N-methyl-acetamide] | + (Ymin ≥ 70%) | ≥ 1000 nM
CNC(=O)COc1cc2cc(Nc3nc(N4CC5(CCC(Oc6ccc7c(C8CCC(=O)NC8=O)nn(C)c7c6)CC5)C4)ncc3Cl)cnc2n(C(C)C)c1=O (stereo not drawn) [Compound 183, 2-[[6-[[5-chloro-2-[7-[3-(2,6-dioxo-3-piperidyl)-1-methyl-indazol-6-yl]oxy-2-azaspiro[3.5]nonan-2-yl]pyrimidin-4-yl]amino]-1-isopropyl-2-oxo-1,8-naphthyridin-3-yl]oxy]-N-methyl-acetamide] | ++++ (Ymin < 30%) | < 10 nM
